Assays:
[1] = test system: brassinosteroid biosynthesis; assay: action on plants when used at a high concentration
From the text: Methods of application and doses of the metabolism inhibitor of the present invention can be suitably chosen by those skilled in the art depending on conditions including a purpose of application, a dosage form, a plot to be treated and the like. […] Such a phenomenon is recognized in difenoconazole, Brz217, Brz218, Brz224, Brz225 and the like, which are typical examples of the metabolism inhibitor of the present invention. Therefore, the metabolism inhibitor of the present invention is preferably applied to plants at a relatively low concentration. However, concentrations to achieve optimum action can be appropriately determined by those skilled in the art by referring to the following examples.

[2] = test system: metabolism of brassinolide; assay: brassinolide metabolism in cell free system (degradation associated with oxidation of the 26th position of brassinolide); format: biochemical; details: cell free system from immature seeds of Pisum sativum
Protocol: To examine whether the accelerating activity on elongation of the cress hypocotyl was on the basis of the inhibitory activity against the metabolism of brassinolide, which is considered to be a practically active brassinosteroid, activity of the compounds was examined in degradation system associated with oxidation of the 26th position of brassinolide. Immature seeds of Pisum sativum were used as plant materials. Brassinolide was added to a cell free system, and metabolic activity was determined by quantifying the compound at the right end in the following scheme to examine inhibitory action of difenoconazole against metabolism. [drawing 6]

Structure (SMILES) | action at a high concentration, opposite to the action of the metabolism inhibitor [1] | Ratio of metabolism inhibition degree (%) relative to control ([2]; 0.01 μM) | Ratio of metabolism inhibition degree (%) relative to control ([2]; 0.1 μM) | Ratio of metabolism inhibition degree (%) relative to control ([2]; 1.0 μM) | Ratio of metabolism inhibition degree (%) relative to control ([2]; 10 μM)
CC1COC(Cn2cncn2)(c2ccc(Oc3ccc(Cl)cc3)cc2Cl)O1 (stereo not drawn) [Difenoconazole, difenoconazole] | inhibit brassinosteroid biosynthesis when used at a high concentration | 0% | 7% | 72% | 76%
CCCC1COC(Cn2cncn2)(c2cccc(Cl)c2)O1 (stereo not drawn) [Brz218] | inhibit brassinosteroid biosynthesis when used at a high concentration |  |  |  | 
COCC1COC(Cn2cncn2)(c2ccc(Cl)cc2)O1 (stereo not drawn) [Brz225] | inhibit brassinosteroid biosynthesis when used at a high concentration |  |  |  | 
CCCC1COC(Cn2cncn2)(c2ccccc2Cl)O1 (stereo not drawn) [Brz217] | inhibit brassinosteroid biosynthesis when used at a high concentration |  |  |  | 
CCCC1COC(Cn2cncn2)(c2ccc(OC)cc2)O1 (stereo not drawn) [Brz224] | inhibit brassinosteroid biosynthesis when used at a high concentration |  |  |  | 
